The results in this text go back to US9522888B2, “Substituted bicyclic compounds” (BRISTOL-MYERS SQUIBB COMPANY, priority 2014, dated 2016).

Entries after “also recorded” stand apart in the source; their conditions may differ.

Test [1] deals with adjuvant-induced arthritis, hind paw volume. The test can be described thus: Rat Adjuvant Induced Arthritis Assay (AA). It counts as in vivo, Male Lewis rats. The note with it: Lewis rat; for paw swelling (mL) on day 20, Mean / paw swelling (mL) on day 22, Mean: once daily oral prophylactic; for inhibition of disease progression as measured by reduced paw swelling: prophylactic oral dosing regimen, result in words. As to the method:
Rat Adjuvant Induced Arthritis Assay (AA) The rat adjuvant-induced arthritis model is an animal model for human rheumatoid arthritis. Male Lewis rats (150-175 g; Harlan, n=8 treatment group) were immunized at the base of the tail with 100 μl of 10 mg/ml freshly ground Mycobacterium butyricum (Difco Laboratories) in incomplete Freund's adjuvant (sigma). Animals were dosed once daily with the test article (as a solution or suspension in the vehicle) or vehicle alone (polyethylene glycol 300, “PEG300”) starting from the day of immunization. The volumes of their hind paws were measured in a water displacement plethysmometer (Ugo Basile, Italy). The baseline paw measurements were taken before onset of the disease (between day 7 to day 10). […] All procedures involving animals were reviewed and approved by the Institutional Animal Care Use Committee.

Test [2] concerns circulating lymphocytes. The test can be described thus: Blood Lymphocyte Reduction (BLR) assay in rat. The format is in vivo, Lewis rats. The note with it: oral; for Percent reduction vs. control at 24 hr post-dose: blood lymphocytes; for lymphocyte reduction: rodent BLR assay, 24 hours post-dose, versus vehicle treated group. As to the method: (§1) Blood Lymphocyte Reduction (BLR) Assay in Rodent:
(§2) Lewis rats or BALB/c mice were dosed orally with vehicle alone (polyethylene glycol 300, “PEG300”) or with test compounds. Compounds were dosed as a solution or suspension in the vehicle, adjusted to reflect the free amount of test article in the event that salt forms are utilized. Blood was drawn at 24 hr and blood lymphocyte counts were determined on an ADVIA 120 Hematology Analyzer (Siemens Healthcare Diagnostics). The results were measured as a reduction in the percentage of circulating lymphocytes as compared to the vehicle treated group at the time of measurement. The results represent the average results of all animals within each treatment group (n=2-4).

The test system of test [3] is circulating lymphocytes. The test can be described thus: Blood Lymphocyte Reduction (BLR) assay in mouse. The format is in vivo, BALB/c mice. The note with it: oral; for lymphocyte reduction: mice, 24 hours post dose. As to the method: as §1, §2
Test [4] deals with MOG35-55 induced EAE, clinical score. The test can be described thus: Mouse Experimental Autoimmune Encephalomyelitis Assay (EAE). The format is in vivo, C57BL/6 mice. The note with it: C57Bl/6 mice; for Clinical scores on day 21 (Mean): mouse EAE, prophylactic oral dosing.
For test [5], the system named is guinea pig myelin basic protein induced EAE, clinical score. The test can be described thus: Rat Experimental Autoimmune Encephalomyelitis (EAE). The format is in vivo, Female Lewis rats. The note with it: Lewis rat; for Clinical Score on Day 11 (Mean): rat EAE, prophylactic oral dosing. As to the method: Rat Experimental Autoimmune Encephalomyelitis (EAE):
Female Lewis rats (150-200 g; Harlan) were immunized at the base of the tail with 0.1 ml of a complete Freund's adjuvant emulsion containing 0.5 mg/mL guinea pig myelin basic protein (Genemed Synthesis) and 2 mg/mL Mycobacterium butyricum (Difco). Beginning on Day 7, rats (n=11/group) were scored individually at least 3×/wk according to the following scheme:
Average clinical scores were calculated for each treatment group on each day of assessment.

[6] abbreviates: prophylactic oral dosing regimen, result in words.

As for `COCCCCC[C@H]1CCc2cc([C@H]3CC[C@](N)(CO)C3)ccc2C1` [Example 672, ((1R,3S)-1-amino-3-((S)-6-(5-methoxypentyl)-5,6,7,8-tetrahydronaphthalen-2-yl)cyclopentyl)methanol], the figures for the “paw swelling (mL) on day 20, Mean” value in test [1] (0.1 mg/kg), in test [1] (0.3 mg/kg) and in test [1] (1.0 mg/kg) were 2.60 mL, 1.46 mL and 0.17 mL, respectively. For the same molecule, the “inhibition of disease progression as measured by reduced paw swelling” value in test [1] is given as “showed inhibition of disease progression”. In test [2] (0.1 mg/kg), the “Percent reduction vs. control at 24 hr post-dose” value came to 47%.
Consider `CCOCCC[C@@H]1CCc2cc([C@H]3CC[C@](N)(CO)C3)ccc2C1` [Example 679, ((1R,3S)-1-amino-3-((S)-6-(3-ethoxypropyl)-5,6,7,8-tetrahydronaphthalen-2-yl)cyclopentyl)methanol], for which the figures for the “paw swelling (mL) on day 22, Mean” value in test [1] (0.1 mg/kg), in test [1] (0.5 mg/kg) and in test [1] (2.50 mg/kg) were 1.55 mL, 0.36 mL and 0.00 mL, respectively. Moreover, the “inhibition of disease progression as measured by reduced paw swelling” value in test [1] was “showed inhibition of disease progression”. In addition, the lymphocyte reduction in test [3] (0.5 mg/kg) stood at 59%; in test [2] (0.1 mg/kg), 65%. In addition, in test [3] (0.5 mg/kg), the “Mouse Blood Lymphocyte Reduction Assay at 24 hr post-dose Percent reduction vs. control” value is on record as 59%. Further, in test [2] (0.1 mg/kg), the “Percent reduction vs. control at 24 hr post-dose” value was 65%. Further, in test [4] (setting [6]), the “inhibition of disease progression as measured by clinical scores” value is reported as “showed inhibition of disease progression; also recorded: inhibit disease progression”. Besides, the figures for the “Clinical scores on day 21 (Mean)” value in test [4] (0.6 mg/kg), in test [4] (3 mg/kg) and in test [4] (15 mg/kg) were 2.9, 1.8 and 1.3, respectively. Also, the “inhibition of disease progression as measured by reduced clinical scores” value in test [5] (setting [6]) is given as “showed inhibition of disease progression”. In addition, the “Clinical Score on Day 11 (Mean)” value amounted to 0.36 in test [5] (0.3 mg/kg), 0.09 in test [5] (1.0 mg/kg) and 0.02 in test [5] (3.0 mg/kg).
As for `COc1cccc(OC[C@H]2CCc3cc([C@H]4CC[C@](N)(CO)C4)ccc3C2)c1` [Example 685, ((1R,3S)-1-amino-3-((S)-6-((3-methoxyphenoxy)methyl)-5,6,7,8-tetrahydronaphthalen-2-yl)cyclopentyl)methanol], in test [2] (0.1 mg/kg), the “Percent reduction vs. control at 24 hr post-dose” value is given as 55%.
As to `COc1ccccc1CC[C@H]1CCc2cc([C@H]3CC[C@](N)(CO)C3)ccc2C1` [Example 682, ((1R,3S)-1-amino-3-((R)-6-(2-methoxyphenethyl)-5,6,7,8-tetrahydronaphthalen-2-yl)cyclopentyl)methanol], in test [2] (0.1 mg/kg), the “Percent reduction vs. control at 24 hr post-dose” value is listed as 17% and the lymphocyte reduction is 17%. Also, the “Percent reduction vs. control at 24 hr post-dose” value in test [2] (2.0 mg/kg) stood at 83%.
Turning to `COCCCCC[C@@H]1CCc2cc([C@H]3CC[C@](N)(CO)C3)ccc2C1` [Example 673, ((1R,3S)-1-amino-3-((R)-6-(5-methoxypentyl)-5,6,7,8-tetrahydronaphthalen-2-yl)cyclopentyl)methanol], in test [2] (0.1 mg/kg), the “Percent reduction vs. control at 24 hr post-dose” value is recorded as 62%.
For `CCCCCOc1ccc2cc([C@@H]3CC[C@](N)(CO)C3)ccc2c1` [Comparative Compound 703, reference compound], in test [3] (1.0 mg/kg), the lymphocyte reduction came out at 52% and the “Mouse Blood Lymphocyte Reduction Assay at 24 hr post-dose Percent reduction vs. control” value was found to be 52%.
For the molecule `COc1cccc(CC[C@@H]2CCc3cc([C@H]4CC[C@](N)(CO)C4)ccc3C2)c1` [Example 677, ((1R,3S)-1-amino-3-((R)-6-(3-methoxyphenethyl)-5,6,7,8-tetrahydronaphthalen-2-yl)cyclopentyl)methanol], the “Percent reduction vs. control at 24 hr post-dose” value in test [2] (0.05 mg/kg) is on record as 49%.
For the molecule `COCCCCCC1CCc2cc([C@@H]3CC[C@](N)(CO)C3)ccc2C1` (single isomer, unassigned) [Example 675], in test [2] (0.1 mg/kg), the “Percent reduction vs. control at 24 hr post-dose” value came out at 63% and the lymphocyte reduction was found to be 63%.
Take `COc1cccc(OC[C@@H]2CCc3cc([C@H]4CC[C@](N)(CO)C4)ccc3C2)c1` [Example 684, ((1R,3S)-1-amino-3-((R)-6-((3-methoxyphenoxy)methyl)-5,6,7,8-tetrahydronaphthalen-2-yl)cyclopentyl)methanol]: in test [3] (0.5 mg/kg), the lymphocyte reduction is 79% and the “Mouse Blood Lymphocyte Reduction Assay at 24 hr post-dose Percent reduction vs. control” value amounted to 79%. Further, the “Percent reduction vs. control at 24 hr post-dose” value in test [2] (0.05 mg/kg) came to 72%.
Turning to `COCCCCCC1CCc2cc([C@@H]3CC[C@](N)(CO)C3)ccc2C1` (single isomer, unassigned) [Example 674], in test [2] (0.1 mg/kg), the “Percent reduction vs. control at 24 hr post-dose” value was determined as 30% and the lymphocyte reduction worked out at 30%. For the same molecule, in test [2] (0.3 mg/kg), the “Percent reduction vs. control at 24 hr post-dose” value came out at 73%.
For the molecule `CCOCCC[C@H]1CCc2cc([C@H]3CC[C@](N)(CO)C3)ccc2C1` [Example 678, ((1R,3S)-1-amino-3-((R)-6-(3-ethoxypropyl)-5,6,7,8-tetrahydronaphthalen-2-yl)cyclopentyl)methanol], in test [2] (0.1 mg/kg), the “Percent reduction vs. control at 24 hr post-dose” value is recorded as 16% and the lymphocyte reduction is 16%. Further, the “Percent reduction vs. control at 24 hr post-dose” value in test [2] (0.3 mg/kg) came to 53%.
